According to publication PMC8812913 (PLoS Neglected Tropical Diseases, 2022):
Read-outs that look alike come from different tables or passages of the source.

What was measured:
[1] = male, Syrian golden, hamster, in vivo, po, 500 mg/kg
Yellow fever virus (YFV) [2] = conditions: read-out: EC50, 50% inhibition of the virus-induced cytopathic effect (CPE); cited from earlier work
in vivo [3] = conditions: male, Syrian golden, hamster, po, 500 mg/kg
[4] = male, Syrian golden, hamster, in vivo, po, 500 mg/kg; remark: listed apart in the source
Yellow fever virus (YFV) [5] = conditions: read-out: EC90 in reducing viral yield; cited from earlier work
in vivo [6] = conditions: male, Syrian golden, hamster, po, 500 mg/kg; remark: listed apart in the source
[7] = cited from earlier work
[8] = cited from earlier work; remark: listed apart in the source
HCV clinical isolates = conditions: cited from earlier work

| SMILES | Plasma concentration at 12 h post dose (Ctrough) [1] | MRT last (in vivo [3]; MRT0-last) | Tmax (in vivo [3]) | Concentration measured in brain tissue [4] | AUC(0-t) (in vivo [6]) | Cmax (in vivo [6]) | MRT last (in vivo [6]) | Tmax (in vivo [6]) | Tmax [4] | further results |
| --- | --- | --- | --- | --- | --- | --- | --- | --- | --- | --- |
| CNc1nc(N)nc2c1ncn2C1OC(COP(=O)(NC(C)C(=O)OC(C)C)Oc2ccccc2)C(O)C1(C)F (stereo not drawn) [AT-281] | 6 ± 2 nM | 4.2 h | 2 h | no AT-281 was detected | 1.7 ± 0.5 µM·h | 600 ± 200 nM | 3.4 ± 1 h | 2 ± 1.7 h | – | EC50 (Yellow fever virus (YFV) [2]): 310 nM; Concentration measured in lung tissue [4]: no AT-281 was detected; MRT0-last [4]: 4.5 h; EC90 (Yellow fever virus (YFV) [5]): 260 nM |
| CNc1nc(N)nc2c1ncn2C1OC(COP(=O)(NC(C)C(=O)OC(C)C)Oc2ccccc2)C(O)C1(C)F (stereo not drawn) [AT-752] | – | – | – | – | – | – | – | – | – | Half-life in primate plasma [7]: > 4.67 h; Alive/total (21 days): 5/5; ALT (hamster, in vivo): 53 ± 5 IU/L; Toxicity, as evidenced by weight loss or mortality (hamster, in vivo, 1000 mg/kg): no toxicity; Half-life in rodent plasma [8]: < 3 min |
| CNc1nc(N)nc2c1ncn2[C@@H]1O[C@H](COP(=O)(N[C@@H](C)C(=O)OC(C)C)Oc2ccccc2)[C@@H](O)[C@@]1(C)F.CNc1nc(N)nc2c1ncn2[C@@H]1O[C@H](COP(=O)(N[C@@H](C)C(=O)OC(C)C)Oc2ccccc2)[C@@H](O)[C@@]1(C)F.O=S(=O)(O)O (stereo partly drawn) [AT-527] | – | – | – | – | – | – | – | – | – | Fold more potent than sofosbuvir (HCV clinical isolates): up to 58 fold |
| C[C@@]1(F)[C@H](O)[C@@H](COP(=O)(O)OP(=O)(O)OP(=O)(O)O)O[C@H]1n1cnc2c(=O)[nH]c(N)nc21 [AT-9010] | – | 11 h | 8 h | no AT-9010 detected | – | – | – | – | – | MRT last (in vivo [3]; Mean residence times (MRT0-last) across tissues): 7 to 11 h |
| C[C@@]1(F)[C@H](O)[C@@H](CO)O[C@H]1n1cnc2c(=O)[nH]c(N)nc21 [AT-273] | 600 ± 100 nM | 11.6 h | – | – | 10.8 ± 1.6 µM·h | 900 ± 100 nM | 9.8 ± 1.1 h | 5.7 ± 4 h | 8.0 h | – |
| CNc1nc(N)nc2c1ncn2C1OC(COP(=O)(O)NC(C)C(=O)O)C(O)C1(C)F (stereo not drawn) [AT-551] | 3400 ± 1700 nM | 8.5 h | – | – | 114 ± 22.1 µM·h | 52400 ± 23500 nM | 4.6 ± 1.5 h | 0.5 h | 2.0 h | – |
